Data: paper PMC8286840, “Identifying SARS-CoV-2 antiviral compounds by screening for small molecule inhibitors of Nsp3 papain-like protease” (Biochemical Journal, 2021)
Counter-ions that a name gives are not always drawn. Like-named read-outs stand apart in the source and are kept apart here. Where a SMILES comes first, the peptide text is derived from it.

What was measured:
[1] = molecular target: T1, SARS-CoV-2 PLpro (nsp3 1564–1878) (Severe acute respiratory syndrome coronavirus 2, UniProt P0DTD1); experiment: biochemical; design: FRET-quenched peptide (Pro3) cleavage by PLpro, 10 min pre-incubation, slope over 20 min, normalised to no-compound control; conditions: read-out: % of control remaining
[2] = molecular target: T1, SARS-CoV-2 PLpro (nsp3 1564–1878); experiment: biochemical; design: FRET-quenched peptide (Pro3) cleavage by PLpro, 10 min pre-incubation, slope over 20 min, normalised to no-compound control; conditions: read-out: % of control remaining; remark: listed apart in the source

CCCCS(=N)(=O)CCC(N)C(=O)O [L-Buthionine-sulfoximine]
remaining activity at 1.25 µM ([1]; Well no.=315, low concentration screen): 97.6%
remaining activity at 3.75 µM ([2]; Well no.=315, high concentration screen): 97.7%

NC(N)=NOCC[C@H](N)C(=O)O [L-Canavanine sulfate]
remaining activity at 1.25 µM ([1]; Well no.=382, low concentration screen): 88.7%
remaining activity at 3.75 µM ([2]; Well no.=382, high concentration screen): 96.4%

NCCC(=O)N[C@@H](Cc1cnc[nH]1)C(=O)O [L-Carnosine]
remaining activity at 1.25 µM ([1]; Well no.=7017, low concentration screen): 112%
remaining activity at 3.75 µM ([2]; Well no.=7017, high concentration screen): 111%

NC(=O)NCCC[C@H](N)C(=O)O [L-Citrulline]
remaining activity at 1.25 µM ([1]; Well no.=7159, low concentration screen): 108%
remaining activity at 3.75 µM ([2]; Well no.=7159, high concentration screen): 102%

N[C@H]1CONC1=O [L-Cycloserine]
remaining activity at 1.25 µM ([1]; Well no.=187, low concentration screen): 104%
remaining activity at 1.25 µM ([1]; Well no.=3185, low concentration screen): 103%
remaining activity at 3.75 µM ([2]; Well no.=187, high concentration screen): 101%
remaining activity at 3.75 µM ([2]; Well no.=3185, high concentration screen): 102%

N[C@@H](CS)C(=O)O [L-Cysteine]
remaining activity at 1.25 µM ([1]; Well no.=7783, low concentration screen): 107%
remaining activity at 3.75 µM ([2]; Well no.=7783, high concentration screen): 109%

N[C@@H](CS(=O)O)C(=O)O [L-Cysteinesulfinic Acid]
remaining activity at 1.25 µM ([1]; Well no.=128, low concentration screen): 93.4%
remaining activity at 3.75 µM ([2]; Well no.=128, high concentration screen): 96.5%

N[C@@H](CSSC[C@H](N)C(=O)O)C(=O)O [L-Cystine]
remaining activity at 1.25 µM ([1]; Well no.=6393, low concentration screen): 104%
remaining activity at 3.75 µM ([2]; Well no.=6393, high concentration screen): 106%

N[C@@H](Cc1ccc(O)c(O)c1)C(=O)O [L-DOPA]
remaining activity at 1.25 µM ([1]; Well no.=6861, low concentration screen): 91.2%
remaining activity at 3.75 µM ([2]; Well no.=6861, high concentration screen): 92.3%

CNCC(O)c1ccc(O)c(O)c1 [L-Epinephrine (Bitartrate)]
remaining activity at 1.25 µM ([1]; Well no.=6952, low concentration screen): 98%
remaining activity at 3.75 µM ([2]; Well no.=6952, high concentration screen): 94.1%

N[C@@H](CCC(=O)O)C(=O)O [L-Glutamic acid hydrochloride]
remaining activity at 1.25 µM ([1]; Well no.=619, low concentration screen): 102%
remaining activity at 3.75 µM ([2]; Well no.=619, high concentration screen): 97.5%

N[C@@H](CCC(=O)O)C(=O)O [L-Glutamic acid monosodium salt]
remaining activity at 1.25 µM ([1]; Well no.=8573, low concentration screen): 103%
remaining activity at 3.75 µM ([2]; Well no.=8573, high concentration screen): 106%

NC(=O)CC[C@H](N)C(=O)O [L-Glutamine]
remaining activity at 1.25 µM ([1]; Well no.=715, low concentration screen): 96.1%
remaining activity at 1.25 µM ([1]; Well no.=6899, low concentration screen): 93.9%
remaining activity at 1.25 µM ([1]; Well no.=7743, low concentration screen): 102%
remaining activity at 3.75 µM ([2]; Well no.=715, high concentration screen): 93.2%
remaining activity at 3.75 µM ([2]; Well no.=6899, high concentration screen): 92.3%
remaining activity at 3.75 µM ([2]; Well no.=7743, high concentration screen): 104%

O=C1O[C@H]([C@@H](O)CO)[C@H](O)[C@@H]1O [L-Gulono-1,4-lactone]
remaining activity at 1.25 µM ([1]; Well no.=6771, low concentration screen): 102%
remaining activity at 3.75 µM ([2]; Well no.=6771, high concentration screen): 104%

N[C@@H](Cc1c[nH]cn1)C(=O)O [L-Histidine hydrochloride]
remaining activity at 1.25 µM ([1]; Well no.=422, low concentration screen): 92.7%
remaining activity at 3.75 µM ([2]; Well no.=422, high concentration screen): 94.7%

NC(=O)NCCCC[C@H](N)C(=O)O [L-Homocitrulline]
remaining activity at 1.25 µM [1]: 101%
remaining activity at 3.75 µM [2]: 89.3%

N[C@@H](CCO)C(=O)O [L-Homoserine]
remaining activity at 1.25 µM ([1]; Well no.=6821, low concentration screen): 100%
remaining activity at 3.75 µM ([2]; Well no.=6821, high concentration screen): 101%

O=C(O)[C@@H]1C[C@@H](O)CN1 [L-Hydroxyproline]
remaining activity at 1.25 µM ([1]; Well no.=6735, low concentration screen): 101%
remaining activity at 1.25 µM ([1]; Well no.=8744, low concentration screen): 94.2%
remaining activity at 3.75 µM ([2]; Well no.=6735, high concentration screen): 102%
remaining activity at 3.75 µM ([2]; Well no.=8744, high concentration screen): 91.4%

CN1[C@@H]2CC[C@H]1C[C@@H](OC(=O)[C@H](CO)c1ccccc1)C2 [L-Hyoscyamine]
remaining activity at 1.25 µM ([1]; Well no.=424, low concentration screen): 99.2%
remaining activity at 1.25 µM ([1]; Well no.=6801, low concentration screen): 103%
remaining activity at 3.75 µM ([2]; Well no.=424, high concentration screen): 96.8%
remaining activity at 3.75 µM ([2]; Well no.=6801, high concentration screen): 99.4%

Nc1ccccc1C(=O)C[C@H](N)C(=O)O [L-Kynurenine]
remaining activity at 1.25 µM ([1]; Well no.=7221, low concentration screen): 95.5%
remaining activity at 3.75 µM ([2]; Well no.=7221, high concentration screen): 92%

C[C@H](O)C(=O)O [L-Lactic acid]
remaining activity at 1.25 µM ([1]; Well no.=7395, low concentration screen): 104%
remaining activity at 3.75 µM ([2]; Well no.=7395, high concentration screen): 106%

CS(=N)(=O)CC[C@H](N)C(=O)O (stereo partly drawn) [L-Methionine sulfoximine]
remaining activity at 1.25 µM ([1]; Well no.=1120, low concentration screen): 96.3%
remaining activity at 3.75 µM ([2]; Well no.=1120, high concentration screen): 99.8%

N[C@@H](Cn1ccc(=O)c(O)c1)C(=O)O [L-Mimosine]
remaining activity at 1.25 µM ([1]; Well no.=3819, low concentration screen): 92.9%
remaining activity at 3.75 µM ([2]; Well no.=3819, high concentration screen): 94.6%

CC(N)=NCCC[C@H](N)C(=O)O [L-N5-(1-Iminoethyl)ornithine hydrochloride]
remaining activity at 1.25 µM ([1]; Well no.=967, low concentration screen): 101%
remaining activity at 3.75 µM ([2]; Well no.=967, high concentration screen): 101%

CCCCCCCCCCCCCCCC(=O)N[C@@H](COP(=O)(O)O)C(=O)O [L-NASPA]
remaining activity at 1.25 µM ([1]; Well no.=4499, low concentration screen): 91.6%
remaining activity at 3.75 µM ([2]; Well no.=4499, high concentration screen): 94.8%

CCCC[C@H](N)C(=O)O [L-Norleucine]
remaining activity at 1.25 µM ([1]; Well no.=7733, low concentration screen): 103%
remaining activity at 3.75 µM ([2]; Well no.=7733, high concentration screen): 106%

CC(C)(S)[C@H](N)C(=O)O [L-Penicillamine]
remaining activity at 1.25 µM ([1]; Well no.=3332, low concentration screen): 100%
remaining activity at 3.75 µM ([2]; Well no.=3332, high concentration screen): 99.5%

O=C(O)[C@@H]1CCCN1 [L-Proline]
remaining activity at 1.25 µM ([1]; Well no.=7737, low concentration screen): 105%
remaining activity at 1.25 µM ([1]; Well no.=8324, low concentration screen): 101%
remaining activity at 3.75 µM ([2]; Well no.=7737, high concentration screen): 108%
remaining activity at 3.75 µM ([2]; Well no.=8324, high concentration screen): 97.3%

O=C1CC[C@@H](C(=O)O)N1 [L-Pyroglutamic acid]
remaining activity at 1.25 µM ([1]; Well no.=6783, low concentration screen): 102%
remaining activity at 3.75 µM ([2]; Well no.=6783, high concentration screen): 104%

C[Se]CC[C@H](N)C(=O)O [L-SelenoMethionine]
remaining activity at 1.25 µM ([1]; Well no.=6681, low concentration screen): 106%
remaining activity at 3.75 µM ([2]; Well no.=6681, high concentration screen): 103%

N[C@@H](CO)C(=O)O [L-Serine]
remaining activity at 1.25 µM ([1]; Well no.=7695, low concentration screen): 105%
remaining activity at 3.75 µM ([2]; Well no.=7695, high concentration screen): 110%

CCNC(=O)CC[C@H](N)C(=O)O [L-Theanine]
remaining activity at 1.25 µM ([1]; Well no.=3522, low concentration screen): 97.3%
remaining activity at 3.75 µM ([2]; Well no.=3522, high concentration screen): 99%

N[C@@H](Cc1c[nH]c2ccccc12)C(=O)O [L-Tryptophan]
remaining activity at 1.25 µM ([1]; Well no.=1471, low concentration screen): 96.7%
remaining activity at 1.25 µM ([1]; Well no.=7361, low concentration screen): 100%
remaining activity at 3.75 µM ([2]; Well no.=1471, high concentration screen): 98.2%
remaining activity at 3.75 µM ([2]; Well no.=7361, high concentration screen): 100%

CC(C)[C@H](N)C(=O)N[C@@H](Cc1ccccc1)C(=O)O [L-Valyl-L-phenylalanine] (H-Val-Phe-OH)
remaining activity at 1.25 µM ([1]; Well no.=8650, low concentration screen): 103%
remaining activity at 3.75 µM ([2]; Well no.=8650, high concentration screen): 101%

C=CC[C@H](N)C(=O)O [L-allylglycine]
remaining activity at 1.25 µM ([1]; Well no.=292, low concentration screen): 91.4%
remaining activity at 3.75 µM ([2]; Well no.=292, high concentration screen): 91.8%

C[C@](N)(Cc1ccc(O)c(O)c1)C(=O)O [L-alpha-Methyl DOPA]
remaining activity at 1.25 µM ([1]; Well no.=1039, low concentration screen): 97.7%
remaining activity at 3.75 µM ([2]; Well no.=1039, high concentration screen): 98.3%
